# From patent US10202604B2, “Methods of using microRNA-141” (Stemirna Therapeutics Co., Ltd., priority 2016, dated 2019)
# Key:
# PPC-1 cells = assay: Clonal and sphere formation assays; format: cell-based, human
# Description: For clonal assays, cultured prostate cancer cells or human prostate cancer cells freshly purified from patient primary tumors were plated at a clonal density (i.e., 100 cells/well) in a 6-well plate. The number of holoclones (33) was counted several days later. For Matrigel-based sphere formation assays, cells in medium were plated (generally 1,000 cells/well) in Matrigel at 1:1 ratio in a total of 100 μl in 96-well plates. Spheres were enumerated 1-2 weeks after plating. For floating sphere formation assays, cells were plated in serum-free epithelial basal medium (PrEBM) supplemented with B27 (Invitrogen), and 20 ng/ml EGF and bFGF in ultra-low attachment (ULA) plate. Floating spheres that arose in 1-2 weeks were counted. For all these experiments, a minimum of triplicate wells was run for each condition and repeat experiments were performed when necessary and feasible.
# [1] = test system: PPC-1 bulk cells or CD44+ DU145 cells; assay: EdU incorporation flow cytometry; format: cell-based, human; details: miR-141-overexpressing cells; 30 nM oligos 48 h, 10 μM EdU 2.5 h
# Description: EdU (5-ethynyl-2′-deoxyuridine) is a nucleoside analog to thymidine and incorporated into DNA during active DNA synthesis. EdU incorporation assays were performed using Click-iT EdU Flow Cytometer Assays kit (C10418, Invitrogen) per manufacturer's instructions. Briefly, PPC-1 bulk cells or CD44^+ DU145 cells transfected with negative control or miR-141 oligos (30 nM) for 48 h were pulsed with 10 μM EdU for 2.5 h and harvested. After fixation and permeabilization, cells were processed for EdU immunostaining and also labeled with Pacific Blue azide (1:200) and finally analyzed on a flow cytometer.
# prostate cancer tumors = assay: Ki-67+ cells in miR-141-overexpressing tumors; format: in vivo
# prostate cancer cells = assay: Cell death and senescence; format: cell-based; details: miR-141 expression
# Du145 cells = assay: Boyden chamber Matrigel invasion assay; format: cell-based, human; details: miR-141 oligos 30 nM, 48 h vs NC
# Description: FIGS. 3A-3J show partial suppression of epithelial to mesenchymal transition by miR-141 and CD44 as a direct target of miR-141. FIGS. 3A-3B show qPCR analysis of epithelial to mesenchymal transition markers in bulk (FIG. 3A) or CD44^+ (FIG. 3B) Du145 cells transfected with the miR-141 oligos (30 nM; 48 h). Results were presented as the relative expression levels over the cells transfected with the NC oligos. […] GAPDH was used as control and the relative protein levels after normalizing to GAPDH and NC controls were indicated below each lane. […] Shown below is the actual sequence in the region with the mutated miR-141 binding sequence indicated in grey (below). […] Shown are representative images. […]
# Du145 cells transfected with NC or miR-141 oligos at the two doses and time intervals indicated were used in Western blotting. Indicated below are relative expression levels (normalized to respective GAPDH and compared to NC) of each protein determined by densitometric scanning of the individual bands. […]
# FIG. 6A: Putative binding site of miR-141 in EZH2 3′-UTR. […] Relative protein levels were measured by densitometry and normalized to GAPDH levels (indicated below). […]
# For Boyden Chamber invasion assays, Biocoat Matrigel Invasion Chamber (BD, Franklin Lakes, N.J.) was employed following the manufacturer's instructions. […] Representative images were taken for each membrane and cells were counted. […]
# CD44 = CD44 levels in endpoint tumors; format: in vivo; details: tumors from miR-141 overexpressing cells vs control tumors
# SUZ12 = SUZ12 protein level, Western blotting; format: cell-based, human; details: PC3 and Du145, 30 or 60 nM, 72 h
# Description: FIG. 6A: Putative binding site of miR-141 in EZH2 3′-UTR. […] FIG. 6C is a qPCR analysis of EZH2 mRNA levels in CD44^+ PCa cells. Bars, mean±SD. *P<0.05; **P<0.01. […] Bars, mean±SD. **P<0.01. […] Western blotting was performed in PC3 and Du145 cells transfected with NC (60 nM) or miR-141 (30 or 60 nM) oligos (72 h). Relative protein levels were measured by densitometry and normalized to GAPDH levels (indicated below). […] Du145 cells plated one day before were treated with 1, 2, and 5 μM of DZNep for 96 h and then cells were harvested for invasion assays. **P<0.01. Inset, WB showing reduced EZH2 proteins by DZNep. […] Du145 cells were transfected with 10 nM scramble siRNA (siCon) or EZH2-targeting siRNAs (siEZH2) or siEZH2 plus anti-miR-141 (30 nM). 48 h later, cells were harvested for invasion assays. Bars, mean±SD. **P<0.01. […] Du145 cells were co-transfected with 30 nM NC or miR-141 oligos together with empty vector or pCMV-EZH2 construct. After 48 h, cells were harvested for invasion assay. Bars, mean±SD. **P<0.01.
substance,measurement,setting,value
"miR-141: miR-141 mirVana mimics (Life Technologies); microRNA-141 oligonucleotide may have SEQ ID NO: 1; in some experiments over-expressed by lentiviral vectors (UAACACUGUCUGGUAAAGAUGG; listed as RNA, further chemistry not given here) [miR-141 mirVana mimics (Life Technologies); in some experiments over-expressed by lentiviral vectors]",clonal expansion,PPC-1 cells,inhibited
same,sphere formation,PPC-1 cells,inhibited
same,EdU incorporation,[1],reduced
same,Ki-67+ cells,prostate cancer tumors,reduced
same,effects on cell death and senescence,prostate cancer cells,minimal effects
same,Du145 cell invasion,Du145 cells,inhibited
same,CD44 mRNA level in endpoint tumors,CD44,lower levels
same,CD44 protein level in endpoint tumors,CD44,lower levels
same,SUZ12 protein level,SUZ12,reduced
